This is an account of results in patent US20110218189A1, “PYRROLO[2,3-d]PYRIMIDIN-2-YL-AMINE DERIVATIVES AS PKC-THETA INHIBITORS” (N.V. ORGANON, priority 2008, published 2011).

The term IC50 denotes the concentration needed to halve the response being measured.

T1 sequence (Q04759 whole entry): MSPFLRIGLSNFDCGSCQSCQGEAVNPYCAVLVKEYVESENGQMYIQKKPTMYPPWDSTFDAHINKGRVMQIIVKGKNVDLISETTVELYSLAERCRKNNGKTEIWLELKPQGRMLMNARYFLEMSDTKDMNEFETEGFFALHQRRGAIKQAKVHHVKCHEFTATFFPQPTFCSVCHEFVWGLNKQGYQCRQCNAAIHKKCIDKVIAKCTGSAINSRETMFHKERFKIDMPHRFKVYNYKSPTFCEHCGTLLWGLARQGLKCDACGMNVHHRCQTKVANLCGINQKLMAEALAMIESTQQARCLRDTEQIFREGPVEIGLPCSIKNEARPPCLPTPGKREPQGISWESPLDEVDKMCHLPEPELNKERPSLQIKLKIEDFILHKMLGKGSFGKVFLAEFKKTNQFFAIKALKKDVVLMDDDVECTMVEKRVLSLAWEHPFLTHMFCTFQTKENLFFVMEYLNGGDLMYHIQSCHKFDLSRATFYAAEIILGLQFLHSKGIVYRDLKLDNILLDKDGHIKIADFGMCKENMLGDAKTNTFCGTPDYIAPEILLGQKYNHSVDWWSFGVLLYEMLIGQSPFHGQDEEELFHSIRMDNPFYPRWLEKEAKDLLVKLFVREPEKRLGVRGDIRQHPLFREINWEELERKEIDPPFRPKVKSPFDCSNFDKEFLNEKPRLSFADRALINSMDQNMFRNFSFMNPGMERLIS

This assay addresses T1, His-tagged human recombinant active PKC theta (Homo sapiens, UniProt Q04759).
T1 construct: His; made in house
Nature of the assay: IMAP fluorescence polarization assay, inhibition of PKC theta kinase activity. It is filed as biochemical. As to conditions: ATP 10 μM, peptide substrate 50 nM, 60 minutes at 30° C.; read-out: IC50 IMAP PKCθ. The procedure:
Inhibition of PKC theta kinase activity was measured using an Immobilized Metal for Phosphochemicals—based coupled assay (IMAP). IMAP is a homogeneous fluorescence polarization (FP) assay based on affinity capture of phosphorylated peptide substrates. IMAP uses fluorescein-labeled peptide substrates that, upon phosphorylation by a protein kinase, bind to so called IMAP nanoparticles, which are derivatized with trivalent metal complexes. Such binding causes a change in the rate of the molecular motion of the peptide, and results in an increase in the FP value observed for the fluorescein label attached to the substrate peptide. In this assay, PKC theta directly phosphorylates the fluorescein-labeled peptide substrate.
Enzymes, substrate and ATP are diluted at all steps in Kinase Reaction buffer (10 mM Tris-HCl, 10 mM MgCl2, 0.01% Tween-20, 0.05% NaN3 pH 7.2, 1 mM DTT). The final volume at the kinase reaction step of the assay in the 384-well plate is 20 μl. The concentrations presented within brackets are final concentrations. First, compounds or DMSO (1%) are added to the wells. Thereafter, peptide substrate (Pseudosubstrate LHQRRGSIKQAKVHHVK-FL, Neosystem, 50 nM) and ATP (10 μM) are added followed by the addition of the PKC theta enzyme (His-tagged human recombinant active PKC theta, 82 kDa, in-house purified, 10 ng/ml), and the mix is incubated for 60 minutes at 30° C. in the dark. Then IMAP progressive binding buffer (100% 1× buffer A, 1:400 Progressive Binding Reagent; Molecular Devices) is added followed by an incubation step of 60 minutes at room temperature in the dark. Finally, the FP signal is read.
A general note: Polarisation of emitted light reports the rotation of a fluorescent probe.
Consider `Fc1ccc(CNc2ncc3cc(-c4ccccc4Cl)n(C[C@@H]4CCCNC4)c3n2)cc1F` [Example 1.1, (R)-6-(2-chlorophenyl)-N-(3,4-difluorobenzyl)-7-(piperidin-3-ylmethyl)-7H-pyrrolo[2,3-d]pyrimidin-2-amine], for which the IC50 is < 10 nM.

Consider `Oc1ccc(CNc2ncc3cc(-c4ccccc4Cl)n(C[C@@H]4CCCNC4)c3n2)cc1` [Example 1.2, (R)-4-((6-(2-chlorophenyl)-7-(piperidin-3-ylmethyl)-7H-pyrrolo[2,3-d]pyrimidin-2-ylamino)methyl)phenol], for which the IC50 is 10 to 100 nM. Take `Oc1cccc(CNc2ncc3cc(-c4ccccc4Cl)n(C[C@@H]4CCCNC4)c3n2)c1` [Example 1.3, (R)-3-((6-(2-chlorophenyl)-7-(piperidin-3-ylmethyl)-7H-pyrrolo[2,3-d]pyrimidin-2-ylamino)methyl)phenol]: the IC50 was in the range of 10 to 100 nM. Turning to `Oc1ccc(CNc2ncc3cc(-c4ccccc4Cl)n(C[C@@H]4CCCNC4)c3n2)cc1F` [Example 1.4, (R)-4-((6-(2-chlorophenyl)-7-(piperidin-3-ylmethyl)-7H-pyrrolo[2,3-d]pyrimidin-2-ylamino)methyl)-2-fluorophenol], the IC50 is < 10 nM. Consider `Oc1cccc(CNc2ncc3cc(-c4c(Cl)cccc4Cl)n(C[C@@H]4CCCNC4)c3n2)c1` [Example 2.1, (R)-3-((6-(2,6-dichlorophenyl)-7-(piperidin-3-ylmethyl)-7H-pyrrolo[2,3-d]pyrimidin-2-ylamino)methyl)phenol], for which the IC50 was < 10 nM. Consider `Fc1ccc(CNc2ncc3cc(-c4c(Cl)cccc4Cl)n(C[C@@H]4CCCNC4)c3n2)cc1F` [Example 2.2, (R)-6-(2,6-dichlorophenyl)-N-(3,4-difluorobenzyl)-7-(piperidin-3-ylmethyl)-7H-pyrrolo[2,3-d]pyrimidin-2-amine], for which the half-maximal inhibitory concentration (IC50) was < 10 nM. Turning to `Oc1ccc(CNc2ncc3cc(-c4c(Cl)cccc4Cl)n(C[C@@H]4CCCNC4)c3n2)cc1` [Example 2.3, (R)-4-((6-(2,6-dichlorophenyl)-7-(piperidin-3-ylmethyl)-7H-pyrrolo[2,3-d]pyrimidin-2-ylamino)methyl)phenol], the IC50 lay in the range of 100 to 10000 nM. To `COc1ccc(CNc2ncc3cc(-c4c(Cl)cccc4Cl)n(C[C@@H]4CCCNC4)c3n2)cc1F` [Example 2.4, (R)-6-(2,6-dichlorophenyl)-N-(3-fluoro-4-methoxybenzyl)-7-(piperidin-3-ylmethyl)-7H-pyrrolo[2,3-d]pyrimidin-2-amine] belongs < 10 nM; to `Fc1cccc(CNc2ncc3cc(-c4c(Cl)cccc4Cl)n(C[C@@H]4CCCNC4)c3n2)c1` [Example 2.5, (R)-6-(2,6-dichlorophenyl)-N-(3-fluorobenzyl)-7-(piperidin-3-ylmethyl)-7H-pyrrolo[2,3-d]pyrimidin-2-amine], < 10 nM. To `Clc1cccc(Cl)c1-c1cc2cnc(NCc3ccccc3)nc2n1C[C@@H]1CCCNC1` [Example 2.6, (R)-N-benzyl-6-(2,6-dichlorophenyl)-7-(piperidin-3-ylmethyl)-7H-pyrrolo[2,3-d]pyrimidin-2-amine] belongs < 10 nM; to `Cc1c(-c2ccccc2Cl)n(C[C@@H]2CCCNC2)c2nc(NCc3ccc(F)c(F)c3)ncc12` [Example 3.1, (R)-6-(2-chlorophenyl)-N-(3,4-difluorobenzyl)-5-methyl-7-(piperidin-3-ylmethyl)-7H-pyrrolo[2,3-d]pyrimidin-2-amine], 10 to 100 nM. With `Cc1c(-c2c(Cl)cccc2Cl)n(C[C@@H]2CCCNC2)c2nc(NCc3ccc(F)c(F)c3)ncc12` [Example 3.2, (R)-6-(2,6-dichlorophenyl)-N-(3,4-difluorobenzyl)-5-methyl-7-(piperidin-3-ylmethyl)-7H-pyrrolo[2,3-d]pyrimidin-2-amine] the figure was < 10 nM; with `Cc1c(-c2ccccc2)n(C[C@@H]2CCCNC2)c2nc(NCc3ccc(F)c(F)c3)ncc12` [Example 3.3, (R)—N-(3,4-difluorobenzyl)-5-methyl-6-phenyl-7-(piperidin-3-ylmethyl)-7H-pyrrolo[2,3-d]pyrimidin-2-amine], 100 to 10000 nM; with `Fc1ccc(CNc2ncc3cc(-c4ccccc4Cl)n(C[C@H]4CCCNC4)c3n2)cc1F` [Example 4.1, (S)-6-(2-chlorophenyl)-N-(3,4-difluorobenzyl)-7-(piperidin-3-ylmethyl)-7H-pyrrolo[2,3-d]pyrimidin-2-amine], 10 to 100 nM. As for `Fc1ccc(CNc2ncc3cc(-c4ccccc4Cl)n(C[C@@H]4CCNC4)c3n2)cc1F` [Example 4.2, (R)-6-(2-chlorophenyl)-N-(3,4-difluorobenzyl)-7-(pyrrolidin-3-ylmethyl)-7H-pyrrolo[2,3-d]pyrimidin-2-amine], the IC50 fell in the range of 100 to 10000 nM. With `Fc1ccc(CNc2ncc3cc(-c4ccccc4Cl)n(C[C@H]4CCNC4)c3n2)cc1F` [Example 4.3, (S)-6-(2-chlorophenyl)-N-(3,4-difluorobenzyl)-7-(pyrrolidin-3-ylmethyl)-7H-pyrrolo[2,3-d]pyrimidin-2-amine] the figure was 10 to 100 nM.

For `Fc1ccc(CNc2ncc3cc(-c4ccccc4Cl)n(CC4CNCCO4)c3n2)cc1F` (stereo not shown) [Example 4.4, 6-(2-chlorophenyl)-N-(3,4-difluorobenzyl)-7-(morpholin-2-ylmethyl)-7H-pyrrolo[2,3-d]pyrimidin-2-amine], the IC50 lay in the range of 10 to 100 nM. To `Cc1ccc(-c2cc3cnc(NCc4ccc(F)c(F)c4)nc3n2C[C@@H]2CCCNC2)c(Cl)c1` [Example 5.1, (R)-6-(2-chloro-4-methylphenyl)-N-(3,4-difluorobenzyl)-7-(piperidin-3-ylmethyl)-7H-pyrrolo[2,3-d]pyrimidin-2-amine] belongs < 10 nM.

For `COc1ccc(-c2cc3cnc(NCc4ccc(F)c(F)c4)nc3n2C[C@@H]2CCCNC2)c(Cl)c1` [Example 5.2, (R)-6-(2-chloro-4-methoxyphenyl)-N-(3,4-difluorobenzyl)-7-(piperidin-3-ylmethyl)-7H-pyrrolo[2,3-d]pyrimidin-2-amine], the IC50 lay within 10 to 100 nM. With `Oc1ccc(-c2cc3cnc(NCc4ccc(F)c(F)c4)nc3n2C[C@@H]2CCCNC2)c(Cl)c1` [Example 5.3, (R)-3-chloro-4-(2-(3,4-difluorobenzylamino)-7-(piperidin-3-ylmethyl)-7H-pyrrolo[2,3-d]pyrimidin-6-yl)phenol] the figure was < 10 nM; with `Fc1ccc(CNc2ncc3cc(-c4ccc(Cl)cc4Cl)n(C[C@@H]4CCCNC4)c3n2)cc1F` [Example 5.4, (R)-6-(2,4-dichlorophenyl)-N-(3,4-difluorobenzyl)-7-(piperidin-3-ylmethyl)-7H-pyrrolo[2,3-d]pyrimidin-2-amine], 10 to 100 nM.

As to `Fc1cc(Cl)c(-c2cc3cnc(NCc4ccc(F)c(F)c4)nc3n2C[C@@H]2CCCNC2)c(Cl)c1` [Example 5.5, (R)-6-(2,6-dichloro-4-fluorophenyl)-N-(3,4-difluorobenzyl)-7-(piperidin-3-ylmethyl)-7H-pyrrolo[2,3-d]pyrimidin-2-amine], the IC50 is < 10 nM. In the case of `Oc1ccc(CNc2ncc3cc(-c4c(Cl)cccc4Cl)n(C[C@@H]4CCCNC4)c3n2)cc1Cl` [Example 6.1, (R)-2-chloro-4-((6-(2,6-dichlorophenyl)-7-(piperidin-3-ylmethyl)-7H-pyrrolo[2,3-d]pyrimidin-2-ylamino)methyl)phenol], the 50% inhibitory concentration (IC50) was < 10 nM. To `Oc1ccc(CNc2ncc3cc(-c4c(Cl)cccc4Cl)n(C[C@@H]4CCCNC4)c3n2)cc1F` [Example 6.2, (R)-4-((6-(2,6-dichlorophenyl)-7-(piperidin-3-ylmethyl)-7H-pyrrolo[2,3-d]pyrimidin-2-ylamino)methyl)-2-fluorophenol] belongs < 10 nM; to `N#Cc1c(-c2c(Cl)cccc2Cl)n(C[C@@H]2CCCNC2)c2nc(NCc3ccc(F)c(F)c3)ncc12` [Example 7.1, (R)-6-(2,6-dichlorophenyl)-2-(3,4-difluorobenzylamino)-7-(piperidin-3-ylmethyl)-7H-pyrrolo[2,3-d]pyrimidine-5-carbonitrile], < 10 nM.

As to `Fc1ccc(CNc2ncc3c(F)c(-c4c(Cl)cccc4Cl)n(C[C@@H]4CCCNC4)c3n2)cc1F` [Example 7.2, (R)-6-(2,6-dichlorophenyl)-N-(3,4-difluorobenzyl)-5-fluoro-7-(piperidin-3-ylmethyl)-7H-pyrrolo[2,3-d]pyrimidin-2-amine], the IC50 is < 10 nM. To `Fc1ccc(CNc2ncc3c(Br)c(-c4c(Cl)cccc4Cl)n(C[C@@H]4CCCNC4)c3n2)cc1F` [Example 7.3, (R)-5-bromo-6-(2,6-dichlorophenyl)-N-(3,4-difluorobenzyl)-7-(piperidin-3-ylmethyl)-7H-pyrrolo[2,3-d]pyrimidin-2-amine] belongs < 10 nM; to `Fc1ccc(CNc2ncc3cc(-c4c(Cl)cccc4Cl)n(CC4CNCCS4)c3n2)cc1F` (stereo not shown) [Example 8.1, 6-(2,6-Dichlorophenyl)-N-(3,4-difluorobenzyl)-7-(thiomorpholin-2-ylmethyl)-7H-pyrrolo[2,3-d]pyrimidin-2-amine], < 10 nM.
